# Experimental data taken from article PMC6692352, “DF2726A, a new IL-8 signalling inhibitor, is able to counteract chemotherapy-induced neuropathic pain” (Scientific Reports, 2019).
# pIC50: −log10 of the molar value.
# Experiments:
# [1] = Metabolic stability, human; format: in vitro ADME; details: Test conc: 2.5 µM
# Description: (§1) Table 1 Physicochemical and in Vitro ADME Properties of DF2726A. | column: DF2726A
# CYP 3A4 = CYP 3A4 (Homo sapiens, UniProt P08684); assay: CYP inhibition 3A4; format: in vitro ADME
# Description: as §1
# [2] = system: oxaliplatin-induced mechanical allodynia; assay: Oxaliplatin-induced mechanical allodynia (Dynamic Plantar Aesthesiometer); format: in vivo, male Wistar rats; details: 30 mg/kg os for 24 days; at 14 (P < 0.05) and 21 days (P < 0.01) vs Oxa + saline
# Procedure: Behavioural tests were performed on male Wistar rats (200–250 g, Harlan, Italy) housed in the animal care facility at the Department of Pharmacy of the University of Naples Federico II, Italy, as previously described. Animals were housed, in a group of five, in a room with controlled temperature (22 ± 1 °C), humidity (60 ± 10%) and light (12 h per day); food and water were available ad libitum. All animals were weighted on the day of each treatment. All behavioural tests were performed between 09:00 and 17:00 h, and the animals were used only once. Animal care and manipulations were conducted in conformity with International and National law and policies (EU Directive 2010/63/EU for animal experiments, ARRIVE guidelines, and the Basel declaration including the 3R concept). The procedures reported here were approved by the Institutional Committee on the Ethics of Animal Experiments (CVS) of the University of Naples Federico II and by Ministero della Salute under protocol no. 2014-00884607. […]
# To assess for changes in sensation or in the development of mechanical allodynia, sensitivity to tactile stimulation was measured using the Dynamic Plantar Aesthesiometer (DPA, Ugo Basile, Italy), which is an automated version of the von Frey hair assessment. […] The means of paw withdrawal (expressed in grams) were calculated from an average of four separate measurements. […]
# [3] = system: paclitaxel-induced mechanical and cold allodynia; assay: Paclitaxel-induced mechanical and cold allodynia; format: in vivo; details: 30 mg/kg os for 14 days, rats
# Procedure: 5/8 inch needles; Chemil s.r.l., Padova, Italy) at 0.08, 0.5, 1, 3, 6, 12, 24, 36 and 48 h for i.v. dosing and at 0.25, 0.5, 1, 3, 6, 12, 24, 36 and 48 h for oral dosing. After each blood withdrawal, the catheters were washed with 0.15-0.2 mL of sterile physiological saline and filled with 0.03 mL of heparin saline solution (0.25 U.I/mL). The heparinized blood was immediately centrifuged (8000 RPM for 5 min at approximately 4°C) and the resultant plasma transferred into vials and stored at - 20°C until analysis. DF2726A concentrations were quantified by HLPC-MS/MS using a chromatographic method with a lower limit of quantitation of 1 ng·mL -1. Non-compartmental analysis (Gibaldi and Perrier, 1982) were used to calculate the pharmacokinetic parameters using a MKModel by Nick Holford software Version 4, (Biosoft, Ferguson, MO 63 135, USA).
# DF2726A was administered at a dose of 30 mg/2ml/kg/os for 14 consecutive days starting 3 days before paclitaxel administration and continuing for 11 days after the first administration of […]
# Induction of neuropathy by paclitaxel
# Rats received 4 once daily intraperitoneal (i.p.) injections of paclitaxel (Tocris, Italy) (2 mg/kg/day i.p.; cumulative dose of 8 mg/kg i.p.) or vehicle (saline, 1ml/kg/day i.p.), administered on alternate days (days 0, 2, 4, and 6) as descr ibed 4. […]
# Pac+Saline group. […] Data are expressed as […]
# p-FAK = p-FAK western blotting in F11-derived neurons; format: cell-based; details: 24 h
# [4] = system: 55 targets among GCPRs, ion channels, enzymes and transporters; details: binding panel tested at 10 µM; ion channels up to 30 µM
# Procedure: target activities towards a panel of GPCRs, enzymes, ion channels, transporters and nuclear
# water/HBSS to a final concentration of 10 μM. Cell membrane homogenates (48 μg protein) were
# incubated for 60 min at 22°C with the respective reference compound in the absence or presence of
# the test compound in a buffer containing 50 mM Tris-HCl (pH 7.4), 2 mM MgCl2 and 1 mM
# EDTA. After incubation, the samples were filtered rapidly under vacuum through glass fiber filters
# (GF/B, Packard Instruments, Meriden, CT, USA) presoaked with 0.3% polyethylenimine (PEI) and
# rinsed several times with ice-cold 50 mM Tris-HCl using a 96-sample cell harvester (Unifilter,
# Packard Instruments). The filters were dried, then counted for radioactivity in a scintillation counter
# (Topcount, Packard Instruments) using a scintillation cocktail (Microscint-O, Packard Instruments).
# The results were expressed as the percentage inhibition of the control radioligand-specific binding.
# The compounds were tested at a single concentration of 10 µM in triplicate.
# Tested targets were as follows:
# GPCR: A2A (agonist radioligand), α1A (antagonist radioligand), α2A (antagonist radioligand), β1
# (agonist radioligand), β2 (agonist radioligand), BK1 (antagonist and agonist radioligand), BK2
# (antagonist and agonist radioligand), CB1 (antagonist and agonist radioligand), CB2 (antagonist and […]
# Chain of CYP 3A4 (P08684 whole entry): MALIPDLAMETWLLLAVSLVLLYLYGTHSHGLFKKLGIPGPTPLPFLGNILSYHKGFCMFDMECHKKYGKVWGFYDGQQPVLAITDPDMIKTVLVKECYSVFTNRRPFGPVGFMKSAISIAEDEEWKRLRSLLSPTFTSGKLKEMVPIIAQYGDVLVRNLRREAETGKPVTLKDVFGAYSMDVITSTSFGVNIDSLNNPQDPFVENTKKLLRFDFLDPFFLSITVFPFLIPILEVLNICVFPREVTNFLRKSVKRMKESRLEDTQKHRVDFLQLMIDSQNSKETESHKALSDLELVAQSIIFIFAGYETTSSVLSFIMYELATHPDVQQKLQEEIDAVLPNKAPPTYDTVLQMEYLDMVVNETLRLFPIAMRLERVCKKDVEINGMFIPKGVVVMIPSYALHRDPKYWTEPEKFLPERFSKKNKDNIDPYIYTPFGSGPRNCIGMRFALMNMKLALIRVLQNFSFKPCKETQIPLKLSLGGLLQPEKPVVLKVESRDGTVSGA
smiles,measurement,setting,value
CC(C)(C(=O)O)c1ccc(Nc2nc(C(F)(F)F)cs2)cc1 [DF2726A],Metabolic stability human,[1],7.0 µL/min/10^6 cells
same,pIC50,CYP 3A4,< 4.52
same,"Effect on oxaliplatin-induced mechanical allodynia (paw withdrawal threshold, DPA test)",[2],significant anti-allodynic effect
same,Effect on paclitaxel-induced mechanical and cold allodynia,[3],prevented
same,"p-FAK levels, oxaliplatin-treated neurons",p-FAK; DF2726A 1 µM + oxaliplatin 20 µM,decreased in the presence of DF2726A
same,"p-FAK levels, paclitaxel-treated neurons",p-FAK; DF2726A + paclitaxel 10 nM,decreased in the presence of DF2726A
same,Selectivity for 55 targets in counterscreens,[4],> 100 fold
